Consider 8 compounds from ChEMBL document CHEMBL1133126, “Non-peptidic phenyl-based thrombin inhibitors: exploring structural requirements of the S1 specificity pocket with amidines” (Bioorg Med Chem Lett, 2000).

Assay [1] has as its target T1, Coagulation factor X (Homo sapiens, UniProt P00742). Nature of the assay: Compound was evaluated for inhibition of Coagulation factor X at […].
The target in assay [2] is T2, Serine protease 1 (Bos taurus) (UniProt P00760).
T2 sequence (whole entry): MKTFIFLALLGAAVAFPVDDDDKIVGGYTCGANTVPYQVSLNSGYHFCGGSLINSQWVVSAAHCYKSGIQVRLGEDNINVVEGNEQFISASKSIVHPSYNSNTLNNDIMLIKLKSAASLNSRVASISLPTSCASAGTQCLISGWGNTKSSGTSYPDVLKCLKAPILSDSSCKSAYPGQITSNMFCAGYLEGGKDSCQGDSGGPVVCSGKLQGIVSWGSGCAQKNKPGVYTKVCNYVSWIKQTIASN
Nature of the assay: Compound was evaluated for inhibition of Trypsin at 15 uM.

The target of assay [3] is Prothrombin (Homo sapiens, UniProt P00734). Nature of the assay: Compound was evaluated for inhibition of Thrombin.
Assay [4] has as its target T3, Serine protease 1 (Bos taurus, UniProt P00760).
T3 sequence (P00760 whole entry): T2 sequence (whole entry)
Nature of the assay: Compound was evaluated for inhibition of Trypsin.

Assay [5] has as its target T2, Serine protease 1 (Bos taurus). Nature of the assay: Compound was evaluated for inhibition of Trypsin at 1.6 uM.
Assay [6] deals with T1, Coagulation factor X. Nature of the assay: Compound was evaluated for inhibition of Coagulation factor X at 1.6 uM.
Assay [7] has as its target T4, Chymotrypsin-C (Homo sapiens) (UniProt Q99895).
T4 sequence (whole entry): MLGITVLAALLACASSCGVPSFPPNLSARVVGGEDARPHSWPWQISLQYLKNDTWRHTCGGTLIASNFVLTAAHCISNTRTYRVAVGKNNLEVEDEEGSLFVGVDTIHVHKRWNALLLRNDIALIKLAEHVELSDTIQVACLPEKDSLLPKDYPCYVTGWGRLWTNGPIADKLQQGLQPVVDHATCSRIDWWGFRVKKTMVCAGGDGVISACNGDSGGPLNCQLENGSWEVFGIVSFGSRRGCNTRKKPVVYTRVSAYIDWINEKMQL
Nature of the assay: Compound was evaluated for inhibition of Serine protease chymotrypsin at 1.7 uM.

Assay [8] addresses T1, Coagulation factor X. Nature of the assay: Compound was evaluated for inhibition of Coagulation factor X.
Assay [9] has as its target T4, Chymotrypsin-C (Homo sapiens). Nature of the assay: Compound was evaluated for inhibition of Serine protease chymotrypsin at […].
For assay [10] the target is unchanged. Nature of the assay: Compound was evaluated for inhibition of Serine protease chymotrypsin at 15 uM.
The target in assay [11] is T2, Serine protease 1 (Bos taurus). Nature of the assay: Compound was evaluated for inhibition of Trypsin at uM. Conditions: concentration not given here.
The target in assay [12] is T1, Coagulation factor X. Nature of the assay: Compound was evaluated for inhibition of Coagulation factor X at 7.5 uM.
Assay [13] has as its target T1, Coagulation factor X. Nature of the assay: Compound was evaluated for inhibition of Coagulation factor X at 1 uM.
The target of assay [14] is T2, Serine protease 1 (Bos taurus). Nature of the assay: Compound was evaluated for inhibition of Trypsin at 1 uM.
Assay [15] concerns the target T4, Chymotrypsin-C (Homo sapiens). Nature of the assay: Compound was evaluated for inhibition of Serine protease chymotrypsin at 1 uM.

T1 sequence (P00742 41-179 limits assumed): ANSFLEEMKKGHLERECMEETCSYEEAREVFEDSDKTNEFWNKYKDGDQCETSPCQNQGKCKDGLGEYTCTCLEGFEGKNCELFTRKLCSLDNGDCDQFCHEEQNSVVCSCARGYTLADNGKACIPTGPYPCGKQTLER
T1 sequence (P00742 235-488 limits assumed): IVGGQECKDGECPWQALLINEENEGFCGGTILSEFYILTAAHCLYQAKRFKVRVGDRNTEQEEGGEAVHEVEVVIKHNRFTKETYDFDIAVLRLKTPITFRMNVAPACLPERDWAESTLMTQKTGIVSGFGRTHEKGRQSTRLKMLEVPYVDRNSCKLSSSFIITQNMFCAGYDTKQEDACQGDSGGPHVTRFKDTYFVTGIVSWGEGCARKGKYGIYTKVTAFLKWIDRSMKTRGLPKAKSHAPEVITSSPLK

In the case of `Cc1cc(OCCCCCC(=N)N)cc(OS(=O)(=O)c2ccccc2Cl)c1`, the inhibition in [1] and in assay [2] was 0% throughout. In assay [3], this compound showed a Ki of 69 nM.

Compound `Cc1cc(OCCCCN=C(N)N)cc(OS(=O)(=O)c2ccccc2Cl)c1` displayed an inhibition constant (Ki) in assay [4] of 42000 nM.

For `Cc1cc(OC[C@H]2CC[C@H](C(=N)N)CC2)cc(OS(=O)(=O)c2ccccc2Cl)c1`, the inhibition in [5] and in [6] was 0% throughout. The Ki in [3] was 2100 nM.

With `Cc1cc(OCc2ccc(C(=N)N)cc2)cc(OS(=O)(=O)c2ccccc2Cl)c1`, the inhibitory constant (Ki) in assay [4] turned out to be 2700 nM; in assay [3] it was 110 nM; in assay [8] it was 17 µM. In assay [7], this compound displayed an inhibition of 0%.

Take `Cc1cc(OCc2cccc(C(=N)N)c2)cc(OS(=O)(=O)c2ccccc2Cl)c1`: the results for the inhibition constant Ki in assay [4] and in [3] were 1500 nM and 99 nM, respectively. Further, the inhibition in assay [9] stood at 0%.

As for `Cc1cc(OCCCC(=N)N)cc(OS(=O)(=O)c2ccccc2Cl)c1`, the inhibition in [10], in assay [11] and in assay [12] was 0% in each case. In addition, the inhibition constant Ki in assay [3] stood at 460 nM.

`Cc1cc(OCC2CCN(C(=N)N)CC2)cc(OS(=O)(=O)c2ccccc2Cl)c1`: the results for the Ki in [4] and in [8] were above 15000 nM and above 15 µM, respectively.

`CC(=N)N1CCC(COc2cc(C)cc(OS(=O)(=O)c3ccccc3Cl)c2)CC1`: the inhibition in assay [13], in assay [14] and in [15] was 0% each time.

In general, inhibition refers to how much of the control response was suppressed. The low end stands for little suppression, the high end for strong suppression. By Ki is commonly meant the equilibrium dissociation constant of an inhibitor or competing ligand from its target. Higher therefore signals weaker binding.
